This note sets out measurements from the Kinase Knowledgebase extract (Sharma et al. 2016).

pIC50: −log10 of the molar value.

In one test the target is PIK3CA (human) (UniProt P42336). The test is described as follows: Inhibition of PIK3CA Kinase Activity.
A further test has as its target PIK3CG (human) (UniProt P48736). The test is described as follows: Inhibition of PIK3CG Kinase Activity.

Sequence of PIK3CG (human) (P48736 whole entry, looked up): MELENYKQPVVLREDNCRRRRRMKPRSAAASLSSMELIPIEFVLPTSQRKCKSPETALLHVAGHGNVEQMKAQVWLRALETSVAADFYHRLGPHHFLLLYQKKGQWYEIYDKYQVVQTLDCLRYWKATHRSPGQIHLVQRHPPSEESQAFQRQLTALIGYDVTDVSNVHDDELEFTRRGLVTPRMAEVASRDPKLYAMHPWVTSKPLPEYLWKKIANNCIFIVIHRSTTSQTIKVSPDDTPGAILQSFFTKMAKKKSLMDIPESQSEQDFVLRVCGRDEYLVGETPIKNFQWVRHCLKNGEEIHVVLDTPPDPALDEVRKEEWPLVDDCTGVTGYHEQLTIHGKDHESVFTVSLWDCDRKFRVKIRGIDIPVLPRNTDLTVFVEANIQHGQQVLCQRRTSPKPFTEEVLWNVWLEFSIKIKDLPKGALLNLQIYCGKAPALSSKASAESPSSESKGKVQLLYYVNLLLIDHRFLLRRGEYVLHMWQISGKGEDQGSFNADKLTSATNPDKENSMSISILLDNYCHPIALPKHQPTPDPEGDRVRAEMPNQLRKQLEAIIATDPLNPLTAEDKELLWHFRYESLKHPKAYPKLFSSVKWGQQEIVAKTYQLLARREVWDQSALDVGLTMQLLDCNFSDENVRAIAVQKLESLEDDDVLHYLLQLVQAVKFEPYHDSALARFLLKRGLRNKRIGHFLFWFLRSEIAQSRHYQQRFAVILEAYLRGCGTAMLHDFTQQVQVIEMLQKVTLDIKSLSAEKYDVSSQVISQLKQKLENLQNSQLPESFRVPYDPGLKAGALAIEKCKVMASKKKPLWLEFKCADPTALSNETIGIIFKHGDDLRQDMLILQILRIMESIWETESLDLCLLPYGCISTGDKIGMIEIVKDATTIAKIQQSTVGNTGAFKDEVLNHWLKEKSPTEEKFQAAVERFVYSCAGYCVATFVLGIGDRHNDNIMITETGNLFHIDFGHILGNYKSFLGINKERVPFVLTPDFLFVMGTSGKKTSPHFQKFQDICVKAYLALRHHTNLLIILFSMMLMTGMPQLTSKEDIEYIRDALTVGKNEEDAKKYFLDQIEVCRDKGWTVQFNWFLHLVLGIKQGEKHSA
Sequence of PIK3CA (human) (P42336 whole entry, looked up): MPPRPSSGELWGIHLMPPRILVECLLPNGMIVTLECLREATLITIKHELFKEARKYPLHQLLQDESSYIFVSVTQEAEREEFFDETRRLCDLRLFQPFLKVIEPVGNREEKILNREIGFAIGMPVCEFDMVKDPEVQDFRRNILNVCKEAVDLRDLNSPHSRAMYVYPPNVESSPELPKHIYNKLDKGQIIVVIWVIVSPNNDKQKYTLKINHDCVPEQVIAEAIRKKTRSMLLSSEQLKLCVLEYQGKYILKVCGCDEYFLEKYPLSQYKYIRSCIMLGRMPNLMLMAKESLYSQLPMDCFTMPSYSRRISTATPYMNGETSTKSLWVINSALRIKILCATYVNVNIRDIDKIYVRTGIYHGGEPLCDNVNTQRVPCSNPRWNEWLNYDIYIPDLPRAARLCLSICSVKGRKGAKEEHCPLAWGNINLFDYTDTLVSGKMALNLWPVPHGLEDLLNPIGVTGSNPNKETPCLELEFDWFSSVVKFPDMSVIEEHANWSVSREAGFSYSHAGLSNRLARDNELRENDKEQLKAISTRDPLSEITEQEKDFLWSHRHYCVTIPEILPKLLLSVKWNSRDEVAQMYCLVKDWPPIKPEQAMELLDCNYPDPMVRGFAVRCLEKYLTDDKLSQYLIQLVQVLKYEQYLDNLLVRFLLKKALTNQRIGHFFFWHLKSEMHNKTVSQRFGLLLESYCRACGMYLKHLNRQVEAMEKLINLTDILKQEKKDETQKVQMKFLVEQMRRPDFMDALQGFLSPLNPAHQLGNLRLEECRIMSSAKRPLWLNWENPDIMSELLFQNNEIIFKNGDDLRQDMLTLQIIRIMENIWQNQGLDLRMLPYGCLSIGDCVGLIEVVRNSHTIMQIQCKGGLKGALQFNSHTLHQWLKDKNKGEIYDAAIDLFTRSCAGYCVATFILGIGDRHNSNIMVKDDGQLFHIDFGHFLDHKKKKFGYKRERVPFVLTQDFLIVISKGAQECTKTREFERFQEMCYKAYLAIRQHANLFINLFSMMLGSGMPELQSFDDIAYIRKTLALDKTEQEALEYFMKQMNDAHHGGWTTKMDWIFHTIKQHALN

Regarding `CCn1nnc2c(N3CCOCC3)nc(-c3ccc(NC(=O)Nc4ccc(NC(=O)NCCN5CCCC5)cc4)cc3)nc21`, the pIC50 against PIK3CA (human) was 6.22; at PIK3CG (human), 8.77.

Consider `CC(C)n1nnc2c(N3CCOCC3)nc(-c3ccc(NC(=O)Nc4ccc(C(=O)NCCN(C)C)cc4)cc3)nc21`, for which the pIC50 against PIK3CA (human) was 6.24; against PIK3CG (human), 8.70.

On to `CN(C)CCNC(=O)c1ccc(NC(=O)Nc2ccc(-c3nc(N4CCOCC4)c4nnn(-c5cccc(C(N)=O)c5)c4n3)cc2)cc1`, for which the pIC50 against PIK3CA (human) is 6.19; on PIK3CG (human), 9.10.

The compound `CCn1nnc2c(N3CCOCC3)nc(-c3ccc(NC(=O)Nc4ccc(N5CCN(C)CC5)cc4)cc3)nc21` gave a pIC50 on PIK3CA (human) of 6.26.

Regarding `CC(C)n1nnc2c(N3CCOCC3)nc(-c3ccc(NC(=O)Nc4ccc(N)cc4)cc3)nc21`, on PIK3CA (human), the pIC50 is 6.33. The pIC50 values of the last two compounds are within 0.2 log units of each other.

For the compound `CCn1nnc2c(N3CCOCC3)nc(-c3ccc(NC(=O)Nc4ccc(NCc5cccnc5)cc4)cc3)nc21`, the pIC50 is 6.26 against PIK3CA (human) and 8.48 on PIK3CG (human).

For the compound `CCn1nnc2c(N3CCOCC3)nc(-c3ccc(NC(=O)Nc4ccc(CN5CCN(C)CC5)cc4)cc3)nc21`, the pIC50 at PIK3CA (human) was 6.25; against PIK3CG (human) it was 8.87.

With `CCN1CCN(C(=O)Nc2ccc(NC(=O)Nc3ccc(-c4nc(N5CCOCC5)c5nnn(CC)c5n4)cc3)cc2)CC1`, the pIC50 is 6.22 at PIK3CA (human) and 9.05 on PIK3CG (human).

In the case of `CCn1nnc2c(N3CCOCC3)nc(-c3ccc(NC(=O)Nc4ccc(N)cc4)cc3)nc21`, the pIC50 was 6.34 on PIK3CA (human) and 8.13 on PIK3CG (human).

For `O=C(Nc1ccncc1)Nc1ccc(-c2nc(N3CCOCC3)c3nnn(CCO)c3n2)cc1`, the pIC50 is 8.28 against PIK3CA (human) and 7.70 against PIK3CG (human).

In turn, `CCn1nnc2c(N3CCOCC3)nc(-c3ccc(NC(=O)Nc4ccc(C(=O)N5CCN(C)CC5)nc4)cc3)nc21` had a pIC50 against PIK3CA (human) of 6.24.

Consider `CCn1nnc2c(N3CCOCC3)nc(-c3ccc(NC(=O)Nc4ccc(C(=O)Nc5cccnc5)cc4)cc3)nc21`, for which the negative logarithm of the IC50 (pIC50) at PIK3CA (human) was 6.25; against PIK3CG (human), 8.73.

Take `CCn1nnc2c(N3CCOCC3)nc(-c3ccc(NC(=O)Nc4ccc(NC(=O)NCCOC)cc4)cc3)nc21`: the pIC50 against PIK3CA (human) is 6.25.

Turning to `CCn1nnc2c(N3CCOCC3)nc(-c3ccc(NC(=O)Nc4ccc(NC(=O)NC5CCN(C)CC5)cc4)cc3)nc21`, the pIC50 against PIK3CA (human) is 6.22; against PIK3CG (human), 8.77.

In the case of `CCn1nnc2c(N3CCOCC3)nc(-c3ccc(NC(=O)Nc4ccc(NC(=O)N5CCCN(C)CC5)cc4)cc3)nc21`, the pIC50 was 6.22 at PIK3CA (human) and 8.78 on PIK3CG (human).

With `CCn1nnc2c(N3CCOCC3)nc(-c3ccc(NC(=O)Nc4ccc(NC(=O)N5CCOCC5)cc4)cc3)nc21`, on PIK3CA (human), the pIC50 is 6.24.

Regarding `CCn1nnc2c(N3CCOCC3)nc(-c3ccc(NC(=O)Nc4ccc([N+](=O)[O-])cc4)cc3)nc21`, the pIC50 on PIK3CA (human) is 6.31.

For `CN(C)CCNC(=O)c1ccc(NC(=O)Nc2ccc(-c3nc(N4CCOCC4)c4nnn(-c5cccc(C(=O)O)c5)c4n3)cc2)cc1`, the negative logarithm of the IC50 (pIC50) was 6.19 against PIK3CA (human) and 9.02 at PIK3CG (human).

At PIK3CA (human), `CCn1nnc2c(N3CCOCC3)nc(-c3ccc(NC(=O)Nc4ccc(NCc5ccncc5)cc4)cc3)nc21` gave a pIC50 of 6.26.

Take `CCn1nnc2c(N3CCOCC3)nc(-c3ccc(NC(=O)Nc4ccc(NC(=O)N5CCN(C)CC5)cc4)cc3)nc21`: the pIC50 against PIK3CA (human) was 6.23; against PIK3CG (human) it was 8.73.

Regarding `CCn1nnc2c(N3CCOCC3)nc(-c3ccc(NC(=O)Nc4ccc(NC(=O)c5ccncc5)cc4)cc3)nc21`, the pIC50 was 6.25 against PIK3CA (human) and 8.73 against PIK3CG (human).

As to `CC(C)n1nnc2c(N3CCOCC3)nc(-c3ccc(NC(=O)Nc4ccc(N5CCN(C)CC5)cc4)cc3)nc21`, the pIC50 against PIK3CA (human) is 6.25.

For `CCn1nnc2c(N3CCOCC3)nc(-c3ccc(NC(=O)Nc4ccc(NC(=O)c5cccc(N(C)C)c5)cc4)cc3)nc21`, the pIC50 is 6.22 against PIK3CA (human) and 8.74 on PIK3CG (human).

For the compound `CCn1nnc2c(N3CCOCC3)nc(-c3ccc(NC(=O)Nc4ccc(NC(=O)NCc5ccccn5)cc4)cc3)nc21`, the figures for the pIC50 on PIK3CA (human) and against PIK3CG (human) were 6.23 and 8.48, respectively.

In the case of `CC(C)n1nnc2c(N3CCOCC3)nc(-c3ccc(NC(=O)Nc4ccc(NS(C)(=O)=O)cc4)cc3)nc21`, the pIC50 against PIK3CA (human) is 6.26.

Turning to `CCn1nnc2c(N3CCOC[C@@H]3C)nc(-c3ccc(NC(=O)Nc4ccc(C(=O)NCCN5CCCCC5)cc4)cc3)nc21`, on PIK3CA (human), the pIC50 is 6.21.

As to `CCn1nnc2c(N3CCOCC3)nc(-c3ccc(NC(=O)Nc4ccc(C(=O)O)nc4)cc3)nc21`, the pIC50 at PIK3CA (human) was 6.31; on PIK3CG (human), 8.48.

The compound `CCn1nnc2c(N3CCOC[C@@H]3C)nc(-c3ccc(NC(=O)Nc4ccc(C(=O)N5CCC(N(C)C)CC5)cc4)cc3)nc21` showed a negative-log IC50 (pIC50) against PIK3CA (human) of 6.21.

In the case of `CCn1nnc2c(N3CCOCC3)nc(-c3ccc(NC(=O)Nc4ccc(NC(=O)CN(C)C)cc4)cc3)nc21`, the figures for the negative logarithm of the IC50 (pIC50) at PIK3CA (human) and against PIK3CG (human) were 6.24 and 8.88, respectively.

Consider `CCn1nnc2c(N3CCOC[C@@H]3C)nc(-c3ccc(NC(=O)Nc4ccc(C(=O)N5CCN(C)CC5)cc4)cc3)nc21`, for which the pIC50 is 6.23 on PIK3CA (human) and 8.67 at PIK3CG (human).

For the compound `CCn1nnc2c(N3CCOCC3)nc(-c3ccc(NC(=O)Nc4ccc(NC(=O)NCCN(C)C)cc4)cc3)nc21`, the pIC50 was 6.24 at PIK3CA (human) and 8.78 against PIK3CG (human).

Compound `CCn1nnc2c(N3CCOCC3)nc(-c3ccc(NC(=O)Nc4ccc(NCc5ccc(OC)nc5)cc4)cc3)nc21` showed a negative logarithm of the IC50 (pIC50) against PIK3CA (human) of 6.24.

With `CCn1nnc2c(N3CCOCC3)nc(-c3ccc(NC(=O)Nc4ccc(NC(=O)N5CCC(N(C)C)CC5)cc4)cc3)nc21`, the figures for the pIC50 against PIK3CA (human) and against PIK3CG (human) were 6.21 and 8.84, respectively.

In turn, `CCn1nnc2c(N3CCOCC3)nc(-c3ccc(NC(=O)Nc4ccc(NCc5ccc(F)nc5)cc4)cc3)nc21` gave a pIC50 on PIK3CA (human) of 6.24.

Turning to `CC(C)n1nnc2c(N3CCOCC3)nc(-c3ccc(NC(=O)Nc4ccc([N+](=O)[O-])cc4)cc3)nc21`, the pIC50 against PIK3CA (human) is 6.30.

With `CCn1nnc2c(N3CCOCC3)nc(-c3ccc(NC(=O)Nc4ccc(C(=O)N(C)CCN(C)C)nc4)cc3)nc21`, the pIC50 is 6.25 at PIK3CA (human) and 8.73 against PIK3CG (human).

The compound `CCn1nnc2c(N3CCOCC3)nc(-c3ccc(NC(=O)Nc4ccc(C(=O)OC)nc4)cc3)nc21` showed a negative logarithm of the IC50 (pIC50) against PIK3CA (human) of 6.30.

With `Oc1cccc(-c2nc(N3CCOCC3)c3nnn(CCCCN4CCN(Cc5ccccc5)CC4)c3n2)c1`, the results for the pIC50 against PIK3CA (human) and against PIK3CG (human) were 6.94 and 6.67, respectively.

With `CCn1nnc2c(N3CCOCC3)nc(-c3ccc(NC(=O)Nc4ccc(NC(=O)N5CCNCC5)cc4)cc3)nc21`, the results for the pIC50 against PIK3CA (human) and on PIK3CG (human) were 6.24 and 8.77, respectively.

As to `CCn1nnc2c(N3CCOCC3)nc(-c3ccc(NC(=O)Nc4ccc(NC(=O)NCCN5CCN(C)CC5)cc4)cc3)nc21`, the pIC50 was 6.20 at PIK3CA (human) and 8.74 at PIK3CG (human).

At PIK3CA (human), `CCn1nnc2c(N3CCOC[C@@H]3C)nc(-c3ccc(NC(=O)Nc4ccc(C(=O)NCCN5CCCC5)cc4)cc3)nc21` gave a pIC50 of 6.22.

For `CCn1nnc2c(N3CCOC[C@@H]3C)nc(-c3ccc(NC(=O)Nc4ccc(C(=O)NCCN(C)C)cc4)cc3)nc21`, the pIC50 on PIK3CA (human) is 6.24; against PIK3CG (human), 8.73.

On to `CC(C)(C)OC(=O)N1CC(n2nnc3c(N4CCOCC4)nc(-c4ccc(NC(=O)Nc5ccccc5)cc4)nc32)C1`, for which the pIC50 is 7.24 on PIK3CA (human) and 6.10 against PIK3CG (human).

For the compound `CCn1nnc2c(N3CCOC[C@@H]3C)nc(-c3ccc(NC(=O)Nc4ccc(C(=O)N(C)CCN(C)C)cc4)cc3)nc21`, the pIC50 on PIK3CA (human) was 6.23; at PIK3CG (human), 8.66.

As for `CC(C)n1nnc2c(N3CCOCC3)nc(-c3ccc(NC(=O)Nc4ccc(C(=O)N5CCN(C)CC5)cc4)cc3)nc21`, the pIC50 at PIK3CA (human) was 6.23.

With `CCn1nnc2c(N3CCOCC3)nc(-c3ccc(NC(=O)Nc4ccc(NC(=O)N(C)CCN(C)C)cc4)cc3)nc21`, the pIC50 is 6.23 against PIK3CA (human) and 8.78 against PIK3CG (human).

In the case of `CCn1nnc2c(N3CCOCC3)nc(-c3ccc(NC(=O)Nc4ccc(C(=O)NN(C)C)cc4)cc3)nc21`, the pIC50 is 6.27 against PIK3CA (human) and 8.10 at PIK3CG (human).

For `CCn1nnc2c(N3CCOCC3)nc(-c3ccc(NC(=O)Nc4ccc(NC(=O)N5CCC(N6CCCC6)CC5)cc4)cc3)nc21`, the results for the pIC50 against PIK3CA (human) and at PIK3CG (human) were 6.19 and 9.12, respectively.

`Oc1cccc(-c2nc(N3CCOCC3)c3nnn(C4CCN(Cc5ccc[nH]5)CC4)c3n2)c1`: the pIC50 at PIK3CA (human) is 7.21; against PIK3CG (human) it was 6.37.
